Here are results for 44 compounds from the Deep4Chem optical property database.

A short description of the data set: solvent given as SMILES.

With `CC(C)(C)c1cc(C#Cc2ccc3c(C#Cc4cc(C(C)(C)C)cc(C(C)(C)C)c4)cc4c5cc(C#Cc6cc(C(C)(C)C)cc(C(C)(C)C)c6)ccc5c(C#Cc5cc(C(C)(C)C)cc(C(C)(C)C)c5)cc4c3c2)cc(C(C)(C)C)c1`, the emission maximum (in ClCCl) amounted to 439 nm.
`c1cc2c3c(cccc3c1)-c1cc3c(ccc4ccccc43)cc1-2` displayed an emission maximum (in CCCCCCC) of 410 nm.
`CCCC[Si](C)(C)c1cccc2ccccc12` came in with an emission maximum (in C1CCCCC1) of 329 nm.
Take `FC(F)(F)C(F)(F)C(F)(F)C1=NC2=C(Br)C=C3c4cc(Br)c5nc(C(F)(F)C(F)(F)C(F)(F)F)nc6c(Br)cc(c4c56)=C4C=C(Br)C(=N1)C2C34` (stereo unspecified): for the setting “in C1CCOC1”, the emission maximum came out at 486 nm.
Take `Cc1cc(-c2nc(-c3ccccc3)nc(-c3ccccc3)n2)ccc1-c1ccc2c(c1)C1(c3ccccc3-c3ccccc31)c1ccccc1N2c1ccccc1`: the emission maximum (in c1cc(-c2cccc(-n3c4ccccc4c4ccccc43)c2)cc(-n2c3ccccc3c3ccccc32)c1) was 450 nm.
As to `O=C(O)CCCc1cc2ccc3cccc4ccc(c1)c2c34`, the emission maximum (in CO) came out at 374 nm.
Where the note is “in CCO”, `Cc1c(C)n2c(COC(=O)c3ccc(F)cc3)c(C)c(=O)n2c1=O` returned an emission maximum of 460 nm.
Under “in CC#N”, `COc1ccc(-c2nc3c([nH]2)=C2C=C(Cl)S[C@@]2(C)[C@]2(C)SC(Cl)=CC=32)cc1` returned an emission maximum of 378 nm.
`COc1ccc(-c2c3ccccc3c(C#Cc3ccccc3)c3cc4ccccc4cc23)cc1`: under “in ClCCl”, the emission maximum turned out to be 550 nm.
Regarding `CC(C)(C)c1ccc2ccc3c(C(C)(C)C)ccc4ccc1c2c43`, the emission maximum by setting is: (in CCCCCC) 379 nm; (in CO) 379 nm; (in ClCCl) 380 nm.
With `CC[n+]1c(C=C2C(=O)C(C=C3N(C)c4ccccc4C3(C)C)=C2[O-])sc2ccccc21`, the emission maximum reads like this: (in CO) 651 nm; (in ClC(Cl)Cl) 666 nm.
`F[B-]1(F)OC(c2ccc(C(F)(F)F)cc2)=Cc2cc(Cl)nc[n+]21` returned an emission maximum (in C1CCOC1) of 428 nm; an emission maximum (in CC#N) of 425 nm; an emission maximum (in CCCCCC) of 421 nm; an emission maximum (in Cc1ccccc1) of 434 nm; an emission maximum (in ClC(Cl)Cl) of 426 nm; an emission maximum (in ClCCl) of 426 nm.
For the compound `CCCCCCC1(CCCCCC)c2cc(-c3nc(-c4ccc5c(c4)C(CCCCCC)(CCCCCC)c4cc(N6c7ccccc7Sc7ccccc76)ccc4-5)nc(-c4ccc5c(c4)C(CCCCCC)(CCCCCC)c4cc(N6c7ccccc7Sc7ccccc76)ccc4-5)n3)ccc2-c2ccc(N3c4ccccc4Sc4ccccc43)cc21`, the emission maximum turned out to be 626 nm (in C1CCOC1), 462 nm (in CCCCCC), 529 nm (in Cc1ccccc1) and 650 nm (in ClCCl).
Under “in O”, `Cc1ccccc1C1=C2C=CC(=[N+](C)C)C=C2[Si](C)(C)c2cc(N(C)C)ccc21` came in with an emission maximum of 660 nm.
On to `Cc1cccc(C2=CC3=C(c4c(C)cc(C)cc4C)c4cc(-c5cccc(C)c5)c(-c5cccc(C)c5)n4[B-](F)(F)[N+]3=C2c2cccc(C)c2)c1`, for which the emission maximum is given as 625 nm (in C1CCCCC1); 626 nm (in C1CCOC1); 620 nm (in CC#N); 628 nm (in Cc1ccccc1); 627 nm (in ClCCl).
In turn, `c1ccc(-c2cc(-c3ccc4c(c3)C3(c5ccccc5-c5ccccc53)c3cc(-c5cc(-c6ccccn6)nc(-c6ccccn6)c5)ccc3-4)cc(-c3ccccn3)n2)nc1` gave an emission maximum (in ClC(Cl)Cl) of 395 nm.
As to `O=CC1=C(c2ccc(-c3cccs3)s2)CC1`, the emission maximum reads like this: (in C1CCOC1) 470 nm; (in CC#N) 493 nm; (in CCCCCC) 464 nm; (in CCO) 516 nm; (in OCCOCCO) 526 nm; (in c1ccncc1) 495 nm.
For the compound `O=c1ccc2ccccc2o1`, the emission maximum (in O) was 385 nm.
Regarding `CC(C)(C)c1ccc2c(c1)c1cc(C(C)(C)C)ccc1n2-c1ccc2c(c1)C(=O)c1ccc(-n3c4ccc(C(C)(C)C)cc4c4cc(C(C)(C)C)ccc43)cc1C2=O`, the emission maximum by setting is: (in Cc1ccccc1) 602 nm; (in c1ccc2c(c1)c1ccccc1n2-c1ccc(-c2ccc(-n3c4ccccc4c4ccccc43)cc2)cc1) 575 nm.
The compound `Cc1c(COC(=O)c2ccc(I)cc2)n2c(OCC(=O)c3ccc(I)cc3)c(C)c(=O)n2c1=O` came in with an emission maximum (in CCO) of 458 nm.
Turning to `Cc1nc2cc3c4c(cccc4c2o1)C(=O)OC3=O`, the emission maximum (in CCO) is 412 nm.
Where the note is “in ClCCl”, `COC(=O)c1ccc(Oc2ccc3c4c(cccc24)C(=O)N(c2c(C(C)C)cccc2C(C)C)C3=O)cc1` registered an emission maximum of 421 nm.
On to `CN(C)c1ccc(/C=C/c2cccnn2)cc1`, for which the emission maximum is, setting by setting: (in C1CCOC1) 476 nm; (in CC#N) 509 nm; (in CCCCCCC) 459 nm; (in CS(C)=O) 518 nm; (in ClCCl) 480 nm.
Turning to `Cc1ccc2c(c1)C1(c3ccccc3Oc3ccccc31)c1cc(C)ccc1N2c1ccc(-c2ncccn2)cc1`, the emission maximum is, setting by setting: (in Cc1ccccc1) 454 nm; (in O=P(c1ccccc1)(c1ccccc1)c1ccc2oc3ccc(P(=O)(c4ccccc4)c4ccccc4)cc3c2c1) 458 nm.
Consider `c1ccc(C2(c3ccccc3)c3ccc4ccc5ccccc5c4c3-c3c2ccc2ccc4ccccc4c32)cc1`, for which the emission maximum (in ClCCl) is reported as 421 nm.
In turn, `CC(C)(C)c1ccc(C2=c3sc(-c4ccc(C(C)(C)C)cc4)cc3=[N+]3C2=Nc2c(-c4ccc(C(C)(C)C)cc4)c4sc(-c5ccc(C(C)(C)C)cc5)cc4n2[B-]3(F)F)cc1` showed an emission maximum (in ClC(Cl)Cl) of 793 nm.
As to `COC(=O)c1ccc(/C=C2\N=C(c3ccc(OC)c(OC)c3)NC2=O)cc1`, for the setting “in C1COCCO1”, the emission maximum worked out at 478 nm.
Regarding `COc1ccc2c(c1)N(c1ccc(C)cc1)c1cc3c(cc1=N2)Oc1c(cc(C(C)(C)C)cc1C(C)(C)C)N=3`, the emission maximum by setting is: (in CC#N) 625 nm; (in CCCCCC) 586 nm; (in CO) 635 nm.
The compound `COc1cc2c(cc1F)c(=O)c1cc(F)c(OC)cc1n2C(C)C` showed an emission maximum (in CCO) of 425 nm.
Turning to `c1ccc(N(c2ccccc2)c2ccc(-c3nc(-c4ccc(N(c5ccccc5)c5ccccc5)cc4)c4ccccc4n3)cc2)cc1`, the emission maximum turned out to be 447 nm (in C1CCCCC1); 518 nm (in C1CCOC1); 565 nm (in CC#N); 568 nm (in CS(C)=O); 534 nm (in ClCCl).
In the case of `COc1ccc(C2=C(c3ccc(OC)cc3)C(C)(C)c3cc(-c4ccccc4)ccc32)cc1`, the emission maximum (in C1CCCCC1) amounted to 417 nm.
`C[Si](C)(C)c1ccc(-c2ccc(-c3ccc(-c4ccc(-c5ccc([Si](C)(C)C)cc5)cc4)c4nsnc34)cc2)cc1`: the emission maximum (in C1CCOC1) came to 516 nm.
Turning to `c1ccc(-c2c3ccc(=[N+]4CCCCC4)cc-3oc3cc(N4CCCCC4)ccc23)cc1`, the emission maximum by setting is: (in CCO) 588 nm; (in ClCCl) 585 nm.
As for `N#Cc1c(C#N)c2cc(Cl)ccc2c2ccc(Cl)cc12`, the emission maximum (in ClC(Cl)Cl) worked out at 388 nm.
`C#CCNC1=C2C(C)=CC(C)=[N+]2[B-](F)(F)n2c(C)cc(C)c21`: the emission maximum turned out to be 501.5 nm (in C1CCCCC1); 496 nm (in CC(C)=O); 497 nm (in CCOC(C)=O); 496 nm (in CO); 494.5 nm (in OCC(F)(F)F).
The compound `Nc1c(-c2nn([C@H]3C[C@H](O)[C@@H](CO)O3)c3ncnc(N)c23)ccc2ccccc12` had an emission maximum (in C1COCCO1) of 428 nm; an emission maximum (in CC#N) of 458 nm; an emission maximum (in CC(C)O) of 480 nm; an emission maximum (in CCO) of 489 nm; an emission maximum (in CCOC(C)=O) of 433 nm; an emission maximum (in CN(C)C=O) of 452 nm. Further, the emission maximum by setting is: (in CO) 498 nm; (in CS(C)=O) 450 nm; (in OCC(O)CO) 404 nm; (in OCCO) 493 nm.
As for `COc1ccc2c(c1)N(c1ccccc1-c1ccccc1)c1cc3c(cc1=N2)Oc1c(cc(C(C)(C)C)cc1C(C)(C)C)N=3`, the emission maximum (in CC#N) was 619 nm, the emission maximum (in CCCCCC) was 583 nm and the emission maximum (in CO) is recorded as 636 nm.
As to `COc1ccc2c3c([nH]c2c1)C(C)=NCC3`, the emission maximum worked out at 480 nm (in CC#N), 420 nm (in CS(C)=O) and 480 nm (in O).
In the case of `O=C1OC(=O)c2ccc(N(c3ccccc3)c3ccc4ccccc4c3)c3cccc1c23`, the emission maximum runs as follows: (in C1CCOC1) 621 nm; (in CCCCCC) 520 nm; (in ClCCl) 638 nm; (in c1ccccc1) 580 nm.
For the compound `CN(C)c1ccc(/C=C/c2cc[n+](Cc3cc(C[n+]4ccc(/C=C/c5ccc(N(C)C)cc5)cc4)cc(C[n+]4ccc(/C=C/c5ccc(N(C)C)cc5)cc4)c3)cc2)cc1`, the emission maximum was 580 nm (in C1COCCO1); 607 nm (in CC(C)O); 595 nm (in CCCCCCCCO); 608 nm (in CCCCO); 611 nm (in CCCO); 613 nm (in CCO). The emission maximum is 618 nm (in CO), 627 nm (in CS(C)=O), 580 nm (in ClC(Cl)Cl) and 600 nm (in ClCCl).
Compound `N#Cc1c(N2CCCCC2)cc(-c2cccc3ccccc23)c2c1CCc1ccccc1-2` had an emission maximum (in C1CCOC1) of 465 nm.
Take `CCCC1=Cc2nc1ccc1[nH]c(cc1CCOC)c1nc(ccc3[nH]c2cc3CCC)C(CCOC)=C1`: the emission maximum (in Cc1ccccc1) is reported as 642 nm.
Compound `CC(=O)c1ccc(C#Cc2ccc3c(N(C)C)cc(-c4ccccc4)cc3c2)cc1` showed an emission maximum (in ClCCl) of 577 nm.
Regarding `Cc1ccc(-n2c(-c3ccccc3N)nc3c4ccccc4c4ccccc4c32)cc1`, where the note is “in Cc1ccccc1”, the emission maximum was determined as 396 nm.
